From patent US8633185B2 (priority 2005, dated 2014) come the findings set out here.

Usually pIC50 stands for the IC50 on a negative log10 scale, so that one unit is a factor of ten.

pIC50: −log10 of the molar value.

For one data set, the system named is K562 cells. Description: K562 cell line Alamar Blue assay. Type of data set: cell-based, human. As to conditions: 96 hours. As to the method:
K562 Cell Line (Alamar Blue Assay)
The compounds to be tested were dissolved in 100% Biotech grade DMSO (Sigma) and subsequently diluted to stock concentrations of either 2 μM or 200 nM in 2% DMSO. 100 μl of the stock concentrations were serially diluted 1 in 3 in 2% DMSO in intermediate polystyrene 96 well cell culture plates (Nunc). 2% DMSO was placed in the outer columns for use as blanks, and in the 2nd or 11th column (depending on whether the top or bottom of an assay plate was to be used) for use as a control. The entire row of the intermediate plate was then transferred in triplicate to either rows B to D or E to G of a fluorescence compatible polystyrene 96 well cell culture plate (Greiner BioOne); 10 μl to each well. A cell solution containing 5×10^4 cells/ml was made up in phenol red free RPMI 1640 (Sigma) supplemented with 10% foetal calf serum (Sigma) and 20 mM L-glutamine (Sigma). 190 μl cell solution was added to each well of the assay plate, from columns 2 to 11. 190 μl culture media was added to columns 1 and 12. Plates were incubated for 96 hours at 37° C. in 5% CO2. 1 μM (final) rezasurin (converted to fluorescent resofurin by viable cells) was added to each well and the plates incubated for a further 4 hours. Fluorescence was read at 530-570 nm excitation, 580-620 nm emission using an Envision plate reader (Applied Biosystems). Data was then analysed by Graphpad PRISM, and an IC50 obtained (defined as the compound concentration needed to reduce the cell population by half).
On the technique in general: Resazurin is reduced to fluorescent resorufin, in cell work by metabolically active cells.

A short description of another data set: Solubility in water. Format: physicochemical. As to conditions: saturated solution in water. As to the method:
Solubility was determined by dissolving the test compound in the minimum amount of water to produce a saturated solution.

Data set [1] concerns K562 human chronic myeloid leukaemia cells. The data set can be described thus: K562 cell line MTT assay, 1 hour exposure. Type of data set: cell-based. As to conditions: 1 hour incubation. As to the method: K562 Cell Line (MTT Assay)
K562 human chronic myeloid leukaemia cells were maintained in RPM1 1640 medium supplemented with 10% fetal calf serum and 2 mM glutamine at 37° C. in a humidified atmosphere containing 5% CO2 and were incubated with a specified dose of drug for 1 hour at 37° C. in the dark. The incubation was terminated by centrifugation (5 min, 300 g) and the cells were washed once with drug-free medium. Following the appropriate drug treatment, the cells were transferred to 96-well microtiter plates (10^4 cells per well, 8 wells per sample). Plates were then kept in the dark at 37° C. in a humidified atmosphere containing 5% CO2. The assay is based on the ability of viable cells to reduce a yellow soluble tetrazolium salt, 3-(4,5-dimethylthiazol-2-yl)-2,5-diphenyl-2H-tetrazolium bromide (MTT, Aldrich-Sigma), to an insoluble purple formazan precipitate. Following incubation of the plates for 4 days (to allow control cells to increase in number by approximately 10 fold), 20 μL of MTT solution (5 mg/mL in phosphate-buffered saline) was added to each well and the plates further incubated for 5 h. The plates were then centrifuged for 5 min at 300 g and the bulk of the medium pipetted from the cell pellet leaving 10-20 μL per well. […] The optical density was then read at a wavelength of 550 nm on a Titertek Multiscan ELISA plate reader, and a dose-response curve was constructed. […]

For data set [2], the system named is Closed-circular puc18 DNA linearized with HindIII. The data set can be described thus: DNA cross-linking (agarose gel). Format: biochemical. As to conditions: amount required to cross-link 50% of the DNA (XL50), 37° C., pH 7.2. The method, then:
Closed-circular puc18 DNA was linearized with HindIII, then dephosphorylated, and finally 5′ end labeled with [y32P]-ATP using polynucleotide kinase. Reactions containing 10 ng of DNA and drug were carried out in aqueous 1×TEOA (25 mM triethanolamine, 1 mM EDTA, pH 7.2) buffer at a final volume of 50 μL at 37° C. Reactions were terminated by addition of an equal volume of stop solution (0.6 M NaOAc, 20 mM EDTA, 100 μg/mL tRNA) followed by precipitation with ethanol. Following centrifugation of the samples, the supernatants were discarded and the pellets were dried by lyophilization. […]
Electrophoresis was performed on a 0.8% submerged horizontal agarose gel, 20 cm in length for 16 hours at 38-40 V in 1×TAE running buffer (2.42 g Tris Base, 0.372 g EDTA, 0.571 ml glacial acetic acid). […] The film bands were quantitated using a BioRad GS-670 imaging laser densitometer. The percentage of cross-linking was calculated by measuring the total DNA in each lane (the sum of the densities for the double-stranded and single-stranded bands) relative to the amount of density of double-stranded band alone. A dose response curve was derived by plotting drug concentration against the determined percentage level of cross-linked DNA, from which was derived the amount required to cross-link 50% of the DNA (XL50).

Data set [3] has as its system K562 human chronic myeloid leukaemia cells. Description: K562 cell line MTT assay, 96 hour exposure. As to conditions: 96 hour incubation. Format: cell-based. The method, then:
In a modification of the above method, 5×10^4 K562 cells (as above) were maintained in RPMI 1640 medium (Sigma) supplemented with 10% foetal calf serum (Sigma) and 20 mM L-glutamine (Sigma) and 190 μL of this solution incubated with specific doses of the drug (10 μL) for 96 hours at 37° C. in 5% CO2. 250 μg/ml (final) MTT was added to each well and the plates incubated for a further 4 hours. Absorbance was read at 450 nm using an Envision plate reader (Applied Biosystems). Data was then analysed by Graphpad PRISM, and an IC50 obtained (defined as the compound concentration needed to reduce the cell population by half).

Data set [4] has as its system LOXIMVI human melanoma cells. Description: LOXIMVI cell line cytotoxicity (resazurin). Type of data set: cell-based. As to conditions: 96 hours, read-out: ZC-423 IC50. As to the method:
(§1) LOXIMVI and OVCAR-5 Cell Lines
(§2) A cell solution containing 5×10^4 cells/ml of either LOXIMVI human melanoma cells or OVCAR-5 human ovarian tumour cells was made up in phenol red free RPMI 1640 (Sigma) supplemented with 10% foetal calf serum (Sigma) and 20 mM L-glutamine (Sigma). 190 μl cell solution was added to each well of a fluorescence compatible polystyrene 96 well cell culture plate (Greiner BioOne), from columns 2 to 11. 190 μl culture media was added to columns 1 and 12. Plates were incubated overnight at 37° C. in 5% CO2. Compounds were dissolved in 100% Biotech grade DMSO (Sigma) and subsequently diluted to stock concentrations in 2% DMSO. 100 μl of the stock concentrations were serially diluted 1 in 3 in 2% DMSO in intermediate polystyrene 96 well cell culture plates (Nunc). 2% DMSO was placed in the outer columns for use as blanks, and in the 2nd or 11th column (depending on whether the top or bottom of an assay plate was to be used) for use as a control. The entire row of the intermediate plate was then transferred in triplicate, 10 μl per well, to either rows B to D or E to G of the cell plate. […] Fluorescence was read at 530-570 nm excitation, 580-620 nm emission using an Envision plate reader (Applied Biosystems). Data was then analysed by Graphpad PRISM, and an IC50 obtained (defined as the compound concentration needed to reduce the cell population by half).

Data set [5] deals with OVCAR-5 human ovarian tumour cells. The data set can be described thus: OVCAR-5 cell line cytotoxicity (resazurin). Type of data set: cell-based. As to conditions: 96 hours, read-out: ZC-423 IC50. The method, then:
as §1, §2

The subject of data set [6] is LOX IMVI (human melanomas). The data set can be described thus: Anti tumour activity, LOX IMVI xenograft in nude mice. Format: in vivo. The method, then:
LOX IMVI (human melanomas) were grown subcutaneously in nude mice (B&K Universal, Hull, UK). Tumours were transplanted as single tumour fragments in the flank by trocar. Groups of 8 tumour-bearing mice were treated with ZC423 at the previously established single intravenous (iv) maximum tolerated dose (MTD) of 3 mgkg^−1 using 5% DMA/saline as the vehicle. Control mice (n=8) were treated with vehicle alone.
Treatment commenced when tumours could be reliably measured by calipers (mean dimensions 4×4 mm) and therapeutic effects were assessed by daily caliper measurements of the tumour and mouse weights. Tumour volumes were determined by the formula a^2×b/2 where a is the smaller and b is the larger diameter of the tumour. The results are shown in FIG. 1 as a graphs of relative tumour volume against time (▪ ZC423; ♦ Control—solvent alone).

Data set [7] is described as follows: Single intravenous maximum tolerated dose. Format: in vivo, mice. As to conditions: previously established.

As to `COc1cccc(C2=CN3C(=O)c4cc(OC)c(OCCCOc5cc6c(cc5OC)C(=O)N5C=C(c7cccc(OC)c7)C[C@H]5C=N6)cc4N=C[C@@H]3C2)c1` [Compound 26, 1,1′-[[(Propane-1,3-diyl)dioxy]bis[(11aS)-7-methoxy-2-(3-methoxybenzene)-1,11a-dihydro-5H-pyrrolo[2,1-c][1,4]benzodiazepine-5-one]]], the pIC50 in the data set with K562 cells (Homo sapiens) was > 9.00.

`COc1cccc(C2=CN3C(=O)c4cc(OC)c(OCCCOc5cc6c(cc5OC)C(=O)N5C=C(c7cccc(OC)c7)C[C@H]5C(S(=O)(=O)[O-])N6)cc4NC(S(=O)(=O)[O-])[C@@H]3C2)c1.[Na+].[Na+]` (stereo partly drawn) [Compound 27, 1,1′-[[(Propane-1,3-diyl)dioxy]bis[(11aS)-11-sulpho-7-methoxy-2-(3-methoxybenzene)-1, 10,11,11a-tetrahydro-5H-pyrrolo[2,1-c][1,4]benzodiazepin-5-one]] sodium salt]: in the data set with K562 cells, the negative-log IC50 (pIC50) is > 9.00. The “Amount of compound (g) in 1 L water” value in “Solubility in water” is listed as 9 g in 1 L water.

For the compound `COc1cc2c(cc1OCCCOc1cc3c(cc1OC)C(=O)N1C=C(c4ccc5c(c4)OCO5)C[C@H]1C=N3)N=C[C@@H]1CC(c3ccc4c(c3)OCO4)=CN1C2=O` [Compound 29], the pIC50 with K562 cells (Homo sapiens) was > 9.00.

As for `COc1cc2c(cc1OCCCOc1cc3c(cc1OC)C(=O)N1C=C(c4ccc(F)cc4)C[C@H]1C=N3)N=C[C@@H]1CC(c3ccc(F)cc3)=CN1C2=O` [Compound 32, 1,1′-[[(Propane-1,3-diyl)dioxy]bis[(11aS)-7-methoxy-2-(4-fluorobenzene)-1,11a-dihydro-5H-pyrrolo[2,1-c][1,4]benzodiazepine-5-one]]], the pIC50 with K562 cells (Homo sapiens) was > 9.00.

Regarding `COc1ccc(C2=CN3C(=O)c4cc(OC)c(OCCCOc5cc6c(cc5OC)C(=O)N5C=C(c7ccc(OC)cc7)C[C@H]5C=N6)cc4N=C[C@@H]3C2)cc1` [ZC-207, 1,1′-[[(Propane-1,3-diyl)dioxy]bis[(11aS)-7-methoxy-2-(p-methoxybenzene)-1,11a-dihydro-5H-pyrrolo[2,1-c][1,4]benzodiazepine-5-one]]], in data set [1], the negative-log IC50 (pIC50) was 8.28. Also, in “Solubility in water”, the “Amount of compound (g) in 1 L water” value is given as “Insoluble”.

With `COc1cc2c(cc1OCCCOc1cc3c(cc1OC)C(=O)N1C=C(c4ccc(F)cc4)C[C@H]1C(S(=O)(=O)[O-])N3)NC(S(=O)(=O)[O-])[C@@H]1CC(c3ccc(F)cc3)=CN1C2=O.[Na+].[Na+]` (stereo partly drawn) [Compound 33, 1,1′-[[(Propane-1,3-diyl)dioxy]bis[(11aS)-11-sulpho-7-methoxy-2-(4-fluorobenzene)-1, 10,11,11a-tetrahydro-5H-pyrrolo[2,1-c][1,4]benzodiazepin-5-one]] sodium salt], in the data set with K562 cells, the pIC50 was > 9.00. For the same compound, in “Solubility in water”, the “Amount of compound (g) in 1 L water” value is reported as 3 g in 1 L water.

`COc1cc2c(cc1OCCCOc1cc3c(cc1OC)C(=O)N1C=C(c4cccs4)C[C@H]1C=N3)N=C[C@@H]1CC(c3cccs3)=CN1C2=O` [Compound 21] had a pIC50 in data set [2] of 6.30.

Regarding `COc1cc2c(cc1OCCCOc1cc3c(cc1OC)C(=O)N1C=C(c4ccc5ccccc5c4)C[C@H]1C=N3)N=C[C@@H]1CC(c3ccc4ccccc4c3)=CN1C2=O` [Compound 18], in [2], the negative-log IC50 (pIC50) was 6.70.

For the compound “1,1′[[(Propane-1,5-diyl)dioxy]bis[(11aS)-11-sulpho-7-methoxy-2-(4-methoxyphenyl)-1,10,11,11a-tetrahydro-5H-pyrrolo[2,1-c][1,4]benzodiazepin-5-one]] sodium salt [ZC-423]”, the pIC50 was 8.82 in [3], 8.32 in [4] and 8.28 in [5]. Besides, the “activity (relative tumour volume vs control), Mann-Whitney analysis” value in data set [6] (single iv 3 mgkg^−1, FIG. 1) was “statistically significant”. In addition, the tumour free animals entry in data set [6] (single iv 3 mgkg^−1, at 68 days, FIG. 2) is given as “all animals were tumour free”. Also, the “single intravenous (iv) maximum tolerated dose (MTD)” value in data set [7] came to 3 mgkg^−1. The “Amount of compound (g) in 1 L water” value in “Solubility in water” worked out at 11 g in 1 L water.
